Experimental data as given in EP2794556B1, “BIS-(ARYL/HETEROARYL)-METHYLENE COMPOUNDS, PHARMACEUTICAL COMPOSITIONS CONTAINING SAME AND THEIR USE FOR TREATING CANCER” (Gleason, James L., priority 2011, dated 2013).
Read-outs that look alike come from different tables or passages of the source.

What was measured:
AT84 cells = assay: EdU cell growth assay; conditions: 1,25D-sensitive AT84 cells, Fig. 2d
Method: (§3) EdU cell growth assay. Click-iT EdU Alexa Fluor high-throughput imaging (HCS) assay for cell proliferation. HCS assays were performed on AT84 mouse squamous carcinoma cell line (ATCC) following the manufacturer's instruction (Molecular Probes, Invitrogen). […] All samples were in triplicate.

VDR [1] = target: T1, VDR (Homo sapiens, UniProt P11473); assay: VDR agonism by induction of CYP24 gene expression (RT/PCR); format: cell-based; conditions: for VDR agonism by induction of CYP24 gene expression: screen at 10 µM, Fig. 1a; for VDR agonism by induction of CYP24 gene expression / VDR agonist activity and potency, induction of CYP24 gene expression: SCC25 cells; for VDR agonist activity and potency, induction of CYP24 gene expression: Fig. 1b, 1d; for induction of CYP24 by the compound was blocked: Fig. 1c, blocking agent not given
T1 construct: endogenous in cells; host or cells: SCC25 human head and neck squamous carcinoma cells
T1 sequence (P11473 1-427): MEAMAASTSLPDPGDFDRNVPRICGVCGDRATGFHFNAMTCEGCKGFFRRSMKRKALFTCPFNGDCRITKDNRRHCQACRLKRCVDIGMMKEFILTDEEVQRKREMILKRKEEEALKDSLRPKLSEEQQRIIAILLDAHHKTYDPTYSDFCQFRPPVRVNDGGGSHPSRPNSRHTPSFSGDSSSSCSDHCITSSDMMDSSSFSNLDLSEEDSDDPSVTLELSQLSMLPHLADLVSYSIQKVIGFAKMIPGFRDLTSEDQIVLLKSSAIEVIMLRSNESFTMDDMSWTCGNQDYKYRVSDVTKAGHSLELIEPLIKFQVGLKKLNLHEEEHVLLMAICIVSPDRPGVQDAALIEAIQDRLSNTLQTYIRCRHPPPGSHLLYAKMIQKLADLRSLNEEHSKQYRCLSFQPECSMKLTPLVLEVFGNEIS
Method: Cell culture. Human head and neck squamous carcinoma cell lines SCC4 and SCC45 and mouse HNSCC line AT84 were purchased from American Type Culture Collection (Manassas, VA) and cultured under recommended conditions. Cells were split at 60-70% confluence, as follows: cells were washed with filtered PBS, split with a 5-10 min incubation with 1 ml Trypsin-EDTA (Invitrogen, Carlsbad, CA) in PBS, collected with medium. Following centrifugation, the supernatant was removed. Cell pellets were resuspended with DMEM-F12, and distributed on fresh media-containing dishes. For treatments, AT84 cells were split and 24h later medium was changed to DMEM + 10% charcoal-stripped FBS.
RNA isolation and RT/PCR analysis. […]. Proc. Nat. Acad. Sci. U.S.A. 105, 8250-55. and Lamblin, M.et al Bioorganic & Medicinal Chemistry (2010) 18:4119-4137. After treatment, cells were washed with PBS, homogenized with 1ml TRIzol Reagent (Invitrogen, Carlsbad, CA), kept at room temperature for 2-5 min, collected and kept at -80 °C for at least 1h. After, thawing 0.2 ml chloroform was added. After vigorous mixing and storing for 10min, mixtures were centrifuged (10,000rpm, 15 min, 4 °C) and the upper transparent layer was transferred to a new tube. 0.5 ml isopropanol was added and the new solution was mixed. After centrifuging at 4 °C, the supernatant was discarded and 1ml of 75% ethanol was added. After centrifuging and discarding the supernatant, the pellet was air-dried for 5-10 min, and then dissolved in ddH2O. RNA concentrations were measured using a spectrophotometer, and 1-3µg of RNA were loaded for reverse transcriptase reactions (total volume: 20 µl). 80µl of ddH2O was added to the RT-product, and 1.5µl of that was used as template for the PCR reaction. Reverse transcriptase (Super Script II) was purchased from Invitrogen (Carlsbad, CA). DNA polymerase and dNTP's were ordered from Fermentas (Glen Burnie, MD).
(§1) Test compounds (10 µM) were first screened for VDR agonism by analysis of induction of CYP24 gene expression in 1,25D-sensitive human SCC25 cells. […]. Consistent with binding to the VDR, induction of CYP24 by compound JF-B01, compound JF-B53 or compound 16 (JF-B54) was blocked (Fig. 1c). […]

SCC4 cells [2] = assay: EdU cell growth assay; conditions: for inhibition of proliferation, EdU incorporation: 1,25D-resistant SCC4 cells, Fig. 2e, f
Method: as §3

HDAC3 = HDAC3 (Homo sapiens, UniProt O15379); assay: Fluorogenic HDAC inhibition assay, purified enzyme
Method: (§4) Fluorogenic HDAC inhibition assay. Boc-Lys(Ac)-7-amino-4-methylcoumarin (Boc-Lys(Ac)-AMC) was used as substrate for the HDAC assays. […] Trypsin was used to stop the reaction, releasing free AMC. The trypsin solution was prepared as follow: trypsin was dissolved in HDAC buffer to give a concentration of 10 mg/mL. Release of AMC was monitored by measuring the fluorescence at 460 nm (lex = 390 nm) with a microplate reader (SpectraMax Gemini) at 37 °C. The AMC signals were recorded against a blank with buffer, substrate and trypsin but without the enzyme. All experiments were carried out at least in triplicate.
(§5) For standard HDAC assays, 50 µL of HDAC buffer was mixed with 10 µL of diluted enzyme solution in HDAC buffer at room temperature. The HDAC reaction was started by adding 40 µL of substrate solution in HDAC buffer followed by 30 min of incubation with stirring at 37 °C. The reaction was stopped by adding 100 µL of trypsin solution. After a 10 min incubation with stirring at 37 °C, the release of AMC was monitored by measuring the fluorescence. For HDAC inhibition assays, inhibitor diluted in 50 µL of HDAC buffer was mixed with 10 µL of diluted enzyme solution in HDAC buffer at room temperature. The HDAC reaction was started by adding 40 µL of substrate solution in HDAC buffer followed by 30 min of incubation with stirring at 37 °C. The reaction was stopped by adding 100 µL of trypsin solution. After a 10 min incubation with stirring at 37 °C, the release of AMC was monitored by measuring the fluorescence.

HDAC6 = target: T2, HDAC6 (Homo sapiens, UniProt Q9UBN7); assay: Fluorogenic HDAC inhibition assay, purified enzyme
T2 sequence (Q9UBN7 1-1215): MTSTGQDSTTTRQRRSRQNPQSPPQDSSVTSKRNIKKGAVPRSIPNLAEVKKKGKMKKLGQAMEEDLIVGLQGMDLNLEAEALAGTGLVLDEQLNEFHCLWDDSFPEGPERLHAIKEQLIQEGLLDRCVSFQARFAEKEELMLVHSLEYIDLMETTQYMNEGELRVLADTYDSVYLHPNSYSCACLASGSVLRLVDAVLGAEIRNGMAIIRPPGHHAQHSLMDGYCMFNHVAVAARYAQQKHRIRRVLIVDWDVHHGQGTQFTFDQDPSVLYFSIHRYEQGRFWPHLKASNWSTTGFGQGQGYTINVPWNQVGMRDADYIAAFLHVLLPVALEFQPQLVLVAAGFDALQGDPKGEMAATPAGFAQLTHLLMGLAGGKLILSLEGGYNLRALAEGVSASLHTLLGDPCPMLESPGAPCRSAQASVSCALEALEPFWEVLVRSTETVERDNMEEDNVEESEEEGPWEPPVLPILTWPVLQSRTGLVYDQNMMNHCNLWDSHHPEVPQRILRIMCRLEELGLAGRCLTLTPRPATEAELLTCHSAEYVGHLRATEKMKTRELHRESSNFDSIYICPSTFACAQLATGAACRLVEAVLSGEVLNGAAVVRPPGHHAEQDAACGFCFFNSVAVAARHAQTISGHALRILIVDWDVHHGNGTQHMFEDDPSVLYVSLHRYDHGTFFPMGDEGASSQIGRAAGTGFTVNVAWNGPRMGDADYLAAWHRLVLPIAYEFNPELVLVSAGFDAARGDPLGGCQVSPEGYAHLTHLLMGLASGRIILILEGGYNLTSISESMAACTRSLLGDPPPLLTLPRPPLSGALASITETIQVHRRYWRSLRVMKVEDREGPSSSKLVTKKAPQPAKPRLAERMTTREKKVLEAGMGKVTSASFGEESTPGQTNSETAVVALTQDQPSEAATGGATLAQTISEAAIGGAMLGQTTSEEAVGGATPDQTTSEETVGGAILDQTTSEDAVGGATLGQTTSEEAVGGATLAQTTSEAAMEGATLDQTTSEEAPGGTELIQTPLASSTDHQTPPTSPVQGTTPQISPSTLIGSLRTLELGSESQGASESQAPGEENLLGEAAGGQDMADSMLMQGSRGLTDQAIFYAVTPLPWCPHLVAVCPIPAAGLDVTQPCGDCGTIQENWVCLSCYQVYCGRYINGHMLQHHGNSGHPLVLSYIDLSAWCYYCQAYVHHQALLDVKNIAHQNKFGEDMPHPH
Method: as §4, §5

SCC4 cells [3] = assay: MTS cell proliferation assay; format: cell-based, human; conditions: vitamin D resistant SCC4 cells, Figures 7c, 8 and 9
Description: Dose-dependent effects of compounds on cell cycle progression was monitored using a CellTiter 96 Aqueous Non-Radioactive Cell Proliferation Assay Kit (Promega). The assay composed of solutions of a novel tetrazolium compound (MTS) and an electron coupling reagent (phenazine methosulfate; PMS). MTS is reduced by metabolically active cells into a soluble formazan product that absorbs at 490nm. The quantity of formazan product absorbing at 490nm is directly proportional to the number of living cells.

VDR [4] = target: T1, VDR; assay: Chromatin immunoprecipitation (ChIP) assay, CYP24 promoter, SCC25 cells; format: cell-based; conditions: Fig. 1e
Method: Chromatin immunoprecipitation assays. ChIP assays were performed with sonicated extracts of SCC25 cells as described (see Wang, T.-T. et al. J Immunol (2004) 173:2909-2912). […] Immunoprecipitations were performed using normal rabbit IgG, anti-VDR antibody (c-20) (Santa Cruz Biotechnology, Santa Cruz, CA). […].
as §1

SCC4 cells [5] = assay: LDH cytotoxicity assay; format: cell-based, human; conditions: vitamin D resistant SCC4 cells, Figures 10 and 11
Method: The cytotoxic effects of compounds were screened using a Cytotoxicity Assay Kit (Cayman Chemical), which measures release of the soluble […] enzyme lactate dehydrogenase (LDH) from dying cells into the culture medium using a coupled two-step reaction. LDH in the media catalyzes the reduction of NAD+ to NADH and H+ by oxidation of lactate to pyruvate. LDH-catalyzed NADH production is then measured by following diaphorase catalyzed NADH-dependent reduction of a tetrazolium salt (INT) to highly-colored formazan which absorbs strongly at 490-520 nm.
The proliferation assays above indicated the cessation of growth.

SCC25 cells = assay: EdU cell growth assay; conditions: higher concentrations
Method: as §3

[6] = system: total intracellular HDAC activity in SCC25 cells; assay: HDACi activity with fluorogenic substrate in live cells; format: cell-based, human; conditions: increasing concentration, Fig. 2a, b
Description: (§2) This assay measures the inhibition of total intracellular HDAC activity and determines the capacity of compounds to inhibit HDACs in the form of their naturally occurring complexes.

[7] = system: total intracellular HDAC activity in SCC4 cells; assay: as above; format: cell-based, human; conditions: increasing concentration, Fig. 2a, b
Description: as §2

HDAC3, sequence (O15379 whole entry, species assumed): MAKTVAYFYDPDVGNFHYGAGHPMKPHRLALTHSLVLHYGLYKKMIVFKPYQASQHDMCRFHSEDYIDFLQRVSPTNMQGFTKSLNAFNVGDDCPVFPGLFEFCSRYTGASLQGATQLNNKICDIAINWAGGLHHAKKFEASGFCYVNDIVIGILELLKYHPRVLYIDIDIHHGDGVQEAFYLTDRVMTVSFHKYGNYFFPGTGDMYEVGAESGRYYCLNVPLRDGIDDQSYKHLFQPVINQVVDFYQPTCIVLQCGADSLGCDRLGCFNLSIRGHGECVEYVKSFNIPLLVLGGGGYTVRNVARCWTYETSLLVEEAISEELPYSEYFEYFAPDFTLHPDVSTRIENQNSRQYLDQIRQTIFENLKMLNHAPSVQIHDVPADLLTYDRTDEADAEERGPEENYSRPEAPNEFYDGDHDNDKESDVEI
HDAC3, sequence (Q9Y618 395-489 partner limits assumed, species assumed): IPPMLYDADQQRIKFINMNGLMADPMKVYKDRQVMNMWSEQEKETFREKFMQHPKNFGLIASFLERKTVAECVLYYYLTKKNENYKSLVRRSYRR

SMILES	inhibition of proliferation, EdU incorporation (SCC4 cells [2])	IC50 (HDAC3) [µM]	IC50 (HDAC6) [µM]	antiproliferative potency (SCC4 cells [3])	VDR agonist activity and potency, induction of CYP24 gene expression (VDR [1])	cytotoxicity, LDH release (SCC4 cells [5])	also measured
CCC(CC)(c1ccc(OCC(=O)NO)c(C)c1)c1ccc(OCC(CO)CO)c(C)c1 [JF-B21]	failed to block SCC4 proliferation	36.1	37.9	–	–	–	inhibition of proliferation, EdU incorporation (AT84 cells): failed to block AT84 proliferation; VDR agonism by induction of CYP24 gene expression (VDR [1]): completely inactive
CCC(CC)(c1ccc(OCC(=O)NO)c(C)c1)c1ccc(OCC(=O)NO)c(C)c1 [JF-B06]	–	–	4.7	–	–	–	inhibition of proliferation, EdU incorporation (AT84 cells): failed to block AT84 proliferation; VDR agonism by induction of CYP24 gene expression (VDR [1]): completely inactive; IC50 (HDAC6; read-out: HDAC6 IC50, purified enzyme in vitro): 4.7 µM
CCC(CC)(c1ccc(OCC(=O)NO)c(C)c1)c1ccc(OC[C@H](O)C(C)(C)C)c(C)c1 [JF-C71, N-Hydroxy-2-(4-(3-(4-((2R)-hydroxy-3,3-dimethylbutoxy)-3-methylphenyl)pentan-3-yl)-2-methylphenoxy)acetamide]	–	22	26.1	low micromolar potency	VDR agonists with similar potencies	–	binding of the VDR to the vitamin D response element in the proximal promoter of the CYP24 gene (VDR [4]): induced binding of the VDR
CCC(CC)(c1ccc(OCC(O)C(C)(C)C)c(C)c1)c1c[nH]c2cc(CCC(=O)NO)ccc12 (stereo not shown) [DK-222, N-hydroxy-3-(3-(3-(4-(2-hydroxy-3,3-dimethylbutoxy)-3-methylphenyl)pentan-3-yl)-1H-indol-6-yl)propanamide]	–	–	–	low micromolar potency	–	good cytotoxicity	–
CCC(O)(CC)COc1ccc(C(CC)(CC)c2ccc(OCC(=O)NO)c(C)c2)cc1C [JF-B54, 2-(4-(3-(4-(2-Ethyl-2-hydroxybutoxy)-3-methylphenyl)pentan-3-yl)-2-methylphenoxy)-N-hydroxyacetamide]	completely	29.9	31.5	–	VDR agonist activity, but with reduced potency	–	induction of CYP24 by the compound was blocked (VDR [1]): blocked; EdU incorporation at higher concentrations (SCC25 cells): completely abolished EdU incorporation; EdU incorporation at higher concentrations (SCC4 cells [2]; SCC4 cells, higher concentrations): completely abolished EdU incorporation; HDACi activity, substrate deacetylation [6]: most potent; HDACi activity, substrate deacetylation [7]: most potent
CCC(CC)(c1ccc(OCC(O)C(C)(C)C)c(C)c1)c1ccc(OCC(=O)NO)c(Br)c1 (stereo not shown) [DK-309, 2-(2-bromo-4-(3-(4-(2-hydroxy-3,3-dimethylbutoxy)-3-methylphenyl)pentan-3-yl)phenoxy)-N-hydroxyacetamide]	–	–	–	–	–	good cytotoxicity	–
CCC(CC)(c1ccc(OCC(=O)NO)cc1)c1ccc(OCC(O)C(C)(C)C)c(C)c1 (stereo not shown) [DK-366, N-hydroxy-2-(4-(3-(4-(2-hydroxy-3,3-dimethylbutoxy)-3-methylphenyl)pentan-3-yl)phenoxy)acetamide]	–	–	6.6 to 8.2	low micromolar potency	–	good cytotoxicity	–
CCC(CC)(c1ccc(OCC(=O)NO)c(C)c1)c1ccc(OCC(C)(C)O)c(C)c1 [JF-B53, N-Hydroxy-2-(4-(3-(4-(2-hydroxy-2-methylpropoxy)-3-methylphenyl)pentan-3-yl)-2-methylphenoxy)acetamide]	partially blocked EdU incorporation	17	33.3	–	VDR agonist activity, but with reduced potency	–	induction of CYP24 by the compound was blocked (VDR [1]): blocked
CCC(CC)(c1ccc(OCC(=O)NO)c(C)c1)c1ccc(OC[C@@H](O)C(C)(C)C)c(C)c1 [JF-C72, N-Hydroxy-2-(4-(3-(4-((2S)-hydroxy-3,3-dimethylbutoxy)-3-methylphenyl)pentan-3-yl)-2-methylphenoxy)acetamide]	–	–	–	low micromolar potency	VDR agonists with similar potencies	–	binding of the VDR to the vitamin D response element in the proximal promoter of the CYP24 gene (VDR [4]): induced binding of the VDR
